pIC50: −log10 of the molar value. Activity calls are given as the source filed them. The rule behind the calls is not given here.
Tests used:
U-87 MG [1] = assay: cells; conditions: Homo sapiens, 72 h
[2] = biological target: PI3-kinase p110-alpha/p85-alpha (Homo sapiens, UniProt P42336); assay: Inhibition of full length recombinant human N-terminal His-tagged PI3K p110alpha/p85alpha expressed in baculovirus using PIP2 as substrate after 1 hr by kinase-glo luminescence assay
[3] = biological target: Serine/threonine-protein kinase mTOR (Homo sapiens, UniProt P42345); assay: Inhibition of recombinant human N-terminal FLAG-tagged mTOR (1362 to end residues) expressed in baculovirus infected Sf21 insect cells assessed as reduction in ULight-4E-BP1 phosphorylation after 30 mins by lance ultra assay
PC-3 = assay: cells; conditions: Homo sapiens, PC-3, 72 h
SK-OV-3 [4] = assay: cells; conditions: Homo sapiens, SK-OV-3, 72 h
LNCaP = assay: cells; conditions: Homo sapiens, 72 h
[5] = biological target: Phosphatidylinositol 4,5-bisphosphate 3-kinase catalytic subunit beta isoform (Homo sapiens, UniProt P42338); assay: Inhibition of PI3Kbeta (unknown origin) using PIP2 as substrate after 1 hr by ADP-Glo luminescence assay
Chain of Phosphatidylinositol 4,5-bisphosphate 3-kinase catalytic subunit beta isoform (P42338 whole entry, canonical isoform): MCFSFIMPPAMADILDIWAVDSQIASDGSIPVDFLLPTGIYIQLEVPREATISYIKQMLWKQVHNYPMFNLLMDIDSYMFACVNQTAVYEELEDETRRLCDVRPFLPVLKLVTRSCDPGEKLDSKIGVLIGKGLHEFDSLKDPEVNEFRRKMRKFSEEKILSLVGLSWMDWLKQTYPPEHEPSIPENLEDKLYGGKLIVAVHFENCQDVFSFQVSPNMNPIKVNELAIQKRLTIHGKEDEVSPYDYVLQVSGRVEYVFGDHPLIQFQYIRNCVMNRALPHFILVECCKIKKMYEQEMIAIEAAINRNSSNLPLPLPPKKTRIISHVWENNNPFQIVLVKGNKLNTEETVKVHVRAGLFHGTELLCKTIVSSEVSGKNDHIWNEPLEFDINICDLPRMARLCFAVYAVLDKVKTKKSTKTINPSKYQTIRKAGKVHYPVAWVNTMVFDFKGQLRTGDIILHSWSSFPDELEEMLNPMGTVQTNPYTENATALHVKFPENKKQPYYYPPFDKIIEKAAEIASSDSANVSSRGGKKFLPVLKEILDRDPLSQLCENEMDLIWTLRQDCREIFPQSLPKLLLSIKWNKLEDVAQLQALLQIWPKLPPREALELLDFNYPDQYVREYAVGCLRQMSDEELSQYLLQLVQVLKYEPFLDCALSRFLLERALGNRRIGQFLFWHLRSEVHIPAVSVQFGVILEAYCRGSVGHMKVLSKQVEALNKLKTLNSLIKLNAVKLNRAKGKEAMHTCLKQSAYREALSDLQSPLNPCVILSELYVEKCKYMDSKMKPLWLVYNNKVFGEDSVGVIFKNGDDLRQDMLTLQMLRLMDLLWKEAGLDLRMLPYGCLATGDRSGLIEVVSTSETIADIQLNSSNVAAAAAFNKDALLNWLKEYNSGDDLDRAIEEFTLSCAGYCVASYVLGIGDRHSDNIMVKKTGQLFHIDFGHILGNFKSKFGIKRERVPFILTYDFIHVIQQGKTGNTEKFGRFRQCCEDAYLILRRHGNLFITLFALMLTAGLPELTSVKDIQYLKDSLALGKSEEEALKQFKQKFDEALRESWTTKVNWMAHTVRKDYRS

[6] = biological target: Phosphatidylinositol 4,5-bisphosphate 3-kinase catalytic subunit gamma isoform (Homo sapiens, UniProt P48736); assay: Inhibition of recombinant human His-tagged PI3K p110gamma expressed in baculovirus using PIP2 as substrate after 1 hr by kinase-glo luminescence assay
Chain of Phosphatidylinositol 4,5-bisphosphate 3-kinase catalytic subunit gamma isoform (P48736 whole entry, canonical isoform): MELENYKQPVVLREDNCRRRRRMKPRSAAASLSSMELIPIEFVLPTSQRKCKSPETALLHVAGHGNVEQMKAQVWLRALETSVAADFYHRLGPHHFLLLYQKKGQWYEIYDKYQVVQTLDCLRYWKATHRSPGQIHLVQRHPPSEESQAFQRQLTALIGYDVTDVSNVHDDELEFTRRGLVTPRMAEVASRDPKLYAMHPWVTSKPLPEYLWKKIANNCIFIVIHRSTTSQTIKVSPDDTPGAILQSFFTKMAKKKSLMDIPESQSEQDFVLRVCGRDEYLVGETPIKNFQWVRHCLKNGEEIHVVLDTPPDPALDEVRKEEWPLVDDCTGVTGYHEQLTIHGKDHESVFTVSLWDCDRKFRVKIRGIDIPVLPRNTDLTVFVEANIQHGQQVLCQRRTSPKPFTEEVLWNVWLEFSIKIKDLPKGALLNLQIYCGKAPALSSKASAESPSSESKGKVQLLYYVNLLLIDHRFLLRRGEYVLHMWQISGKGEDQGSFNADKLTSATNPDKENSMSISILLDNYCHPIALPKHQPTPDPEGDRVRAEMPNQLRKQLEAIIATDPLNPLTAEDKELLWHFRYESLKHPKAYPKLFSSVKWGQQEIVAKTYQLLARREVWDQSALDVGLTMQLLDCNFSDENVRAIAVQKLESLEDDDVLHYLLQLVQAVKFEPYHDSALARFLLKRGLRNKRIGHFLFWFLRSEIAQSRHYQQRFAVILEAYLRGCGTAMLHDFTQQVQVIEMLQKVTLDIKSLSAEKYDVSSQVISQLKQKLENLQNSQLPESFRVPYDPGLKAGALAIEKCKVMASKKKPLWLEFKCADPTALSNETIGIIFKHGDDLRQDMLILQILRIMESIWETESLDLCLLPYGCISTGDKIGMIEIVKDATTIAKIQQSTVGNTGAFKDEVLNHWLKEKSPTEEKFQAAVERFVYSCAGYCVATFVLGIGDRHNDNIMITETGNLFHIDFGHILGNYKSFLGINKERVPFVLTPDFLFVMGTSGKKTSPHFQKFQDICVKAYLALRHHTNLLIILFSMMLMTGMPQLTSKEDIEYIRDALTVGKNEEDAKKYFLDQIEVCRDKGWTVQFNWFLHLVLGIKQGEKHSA

[7] = biological target: PI3-kinase p110-delta/p85-alpha (Homo sapiens, UniProt O00329); assay: Inhibition of recombinant full length human N-terminal His6-tagged PI3K p110delta/p85alpha expressed in baculovirus infected Sf21 cells using PIP2 as substrate after 2 hrs by kinase-glo luminescence assay
Chain of PI3-kinase p110-delta/p85-alpha (P27986 whole entry): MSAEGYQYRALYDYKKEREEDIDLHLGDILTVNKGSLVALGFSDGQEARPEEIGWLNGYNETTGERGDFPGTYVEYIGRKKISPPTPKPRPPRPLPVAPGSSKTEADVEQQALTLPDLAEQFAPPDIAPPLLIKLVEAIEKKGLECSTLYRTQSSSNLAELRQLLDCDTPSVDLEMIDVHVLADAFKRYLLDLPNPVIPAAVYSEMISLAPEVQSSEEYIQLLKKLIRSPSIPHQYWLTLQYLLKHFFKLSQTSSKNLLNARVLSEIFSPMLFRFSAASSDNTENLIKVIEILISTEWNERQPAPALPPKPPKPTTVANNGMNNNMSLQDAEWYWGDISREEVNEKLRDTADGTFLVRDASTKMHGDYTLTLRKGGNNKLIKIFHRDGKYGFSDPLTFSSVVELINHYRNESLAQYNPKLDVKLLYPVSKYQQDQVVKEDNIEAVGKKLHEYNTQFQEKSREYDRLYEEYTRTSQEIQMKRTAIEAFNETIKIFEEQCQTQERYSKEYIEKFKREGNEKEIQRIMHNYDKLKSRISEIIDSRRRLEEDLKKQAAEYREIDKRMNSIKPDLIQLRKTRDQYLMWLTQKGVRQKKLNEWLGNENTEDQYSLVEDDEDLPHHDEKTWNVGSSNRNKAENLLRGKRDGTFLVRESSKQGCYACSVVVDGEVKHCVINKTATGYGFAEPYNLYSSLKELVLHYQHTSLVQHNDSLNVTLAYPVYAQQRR
Chain of PI3-kinase p110-delta/p85-alpha (O00329 whole entry): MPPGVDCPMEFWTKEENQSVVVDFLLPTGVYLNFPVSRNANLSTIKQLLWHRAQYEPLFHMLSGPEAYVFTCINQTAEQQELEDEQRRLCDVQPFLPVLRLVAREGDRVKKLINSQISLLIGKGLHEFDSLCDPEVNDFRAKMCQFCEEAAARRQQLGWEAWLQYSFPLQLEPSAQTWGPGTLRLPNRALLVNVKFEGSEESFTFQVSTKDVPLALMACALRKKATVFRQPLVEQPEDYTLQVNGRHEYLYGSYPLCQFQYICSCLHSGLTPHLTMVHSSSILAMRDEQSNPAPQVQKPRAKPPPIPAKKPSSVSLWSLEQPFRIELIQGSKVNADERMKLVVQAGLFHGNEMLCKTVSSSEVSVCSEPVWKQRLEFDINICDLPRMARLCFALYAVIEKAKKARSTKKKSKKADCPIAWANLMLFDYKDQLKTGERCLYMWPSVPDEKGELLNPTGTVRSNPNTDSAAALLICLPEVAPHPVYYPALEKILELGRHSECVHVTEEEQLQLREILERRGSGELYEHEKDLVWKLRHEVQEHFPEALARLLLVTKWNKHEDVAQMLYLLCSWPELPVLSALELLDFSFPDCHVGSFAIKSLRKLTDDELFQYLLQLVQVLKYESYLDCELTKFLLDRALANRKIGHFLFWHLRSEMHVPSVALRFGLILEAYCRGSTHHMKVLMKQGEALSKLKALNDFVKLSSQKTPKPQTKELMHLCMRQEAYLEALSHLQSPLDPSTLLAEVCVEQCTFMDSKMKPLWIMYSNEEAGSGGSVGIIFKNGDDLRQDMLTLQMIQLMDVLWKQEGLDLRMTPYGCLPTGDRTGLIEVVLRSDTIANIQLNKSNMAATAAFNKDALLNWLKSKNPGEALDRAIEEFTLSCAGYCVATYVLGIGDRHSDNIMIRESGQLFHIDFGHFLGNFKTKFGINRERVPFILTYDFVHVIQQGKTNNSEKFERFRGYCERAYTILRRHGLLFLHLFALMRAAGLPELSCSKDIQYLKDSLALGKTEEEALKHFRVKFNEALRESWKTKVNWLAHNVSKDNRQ

SK-OV-3 [8] = assay: Antitumor activity against human SKOV3 cells xenografted in BALB/c nude mouse assessed as tumor growth inhibition at 30 mg/kg/day, po for 24 days measured every 3 days during compound dosing relative to control; type: functional
U-87 MG [9] = assay: Antitumor activity against human U87MG cells xenografted in BALB/c nude mouse assessed as tumor growth inhibition at 20 mg/kg/day, po for 18 days measured every 3 days during compound dosing relative to control; type: functional; conditions: U-87MG ATCC

Chain of PI3-kinase p110-alpha/p85-alpha (P27986 whole entry): as the sequence (P27986 whole entry) above
Chain of PI3-kinase p110-alpha/p85-alpha (P42336 whole entry): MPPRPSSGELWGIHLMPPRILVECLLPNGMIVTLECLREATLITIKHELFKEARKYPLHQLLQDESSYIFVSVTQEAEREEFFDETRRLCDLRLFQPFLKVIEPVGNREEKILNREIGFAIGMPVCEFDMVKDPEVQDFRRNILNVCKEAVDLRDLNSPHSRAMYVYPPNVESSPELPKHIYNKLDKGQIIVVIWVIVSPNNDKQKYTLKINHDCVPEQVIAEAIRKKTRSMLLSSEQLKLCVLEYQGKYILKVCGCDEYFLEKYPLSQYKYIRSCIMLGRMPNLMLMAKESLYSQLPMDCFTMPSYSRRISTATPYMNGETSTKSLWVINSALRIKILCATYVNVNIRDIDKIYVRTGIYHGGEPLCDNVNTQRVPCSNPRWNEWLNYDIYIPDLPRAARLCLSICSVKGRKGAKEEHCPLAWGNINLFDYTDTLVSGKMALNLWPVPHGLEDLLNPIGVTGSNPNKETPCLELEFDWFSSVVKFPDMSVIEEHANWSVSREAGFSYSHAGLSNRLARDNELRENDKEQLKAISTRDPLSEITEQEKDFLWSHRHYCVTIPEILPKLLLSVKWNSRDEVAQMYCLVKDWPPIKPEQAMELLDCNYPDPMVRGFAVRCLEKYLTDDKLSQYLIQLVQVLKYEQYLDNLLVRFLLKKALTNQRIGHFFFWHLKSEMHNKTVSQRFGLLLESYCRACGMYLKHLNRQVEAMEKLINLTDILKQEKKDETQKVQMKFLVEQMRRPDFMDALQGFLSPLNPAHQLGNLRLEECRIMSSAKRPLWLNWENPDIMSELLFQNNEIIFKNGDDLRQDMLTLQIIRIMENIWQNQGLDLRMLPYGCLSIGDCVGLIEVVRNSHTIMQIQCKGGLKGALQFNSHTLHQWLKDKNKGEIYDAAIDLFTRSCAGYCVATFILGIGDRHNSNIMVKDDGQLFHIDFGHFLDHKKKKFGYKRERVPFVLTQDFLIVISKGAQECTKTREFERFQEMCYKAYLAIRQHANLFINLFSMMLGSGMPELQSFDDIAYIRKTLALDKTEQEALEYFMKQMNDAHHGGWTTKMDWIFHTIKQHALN

pIC50 (U-87 MG [1]) | pIC50 [2] | pIC50 [3] | pIC50 (PC-3) | pIC50 (SK-OV-3 [4]) | pIC50 (LNCaP) | pIC50 [5] | pIC50 [6] | pIC50 [7] | Compound | TGI (SK-OV-3 [8]) | TGI (U-87 MG [9])
< 4.60 | 5.38 | 6.76 | 5.52 | 4.72 | 5.62 |  |  |  | C[C@@H]1CN(c2nc(N3CCOCC3)c3sc(-c4ccc[nH]4)cc3n2)C[C@H](C)O1 |  | 
 | < 5.00 | < 5.70 |  |  |  |  |  |  | C[C@@H]1CN(c2nc(N3CCOCC3)c3sc(-c4ccsc4)cc3n2)C[C@H](C)O1 |  | 
5.01 | < 5.00 | 6.65 | 5.60 | 5.74 | 5.62 |  |  |  | C[C@@H]1CN(c2nc(N3CCOCC3)c3sc(-c4ccccc4O)cc3n2)C[C@H](C)O1 |  | 
5.06 | 6.71 | 7.14 | 5.76 | 6.08 | 5.96 |  |  |  | Cc1c(-c2ccn[nH]2)sc2c(N3CCOCC3)nc(N3C[C@@H](C)O[C@@H](C)C3)nc12 |  | 
< 4.60 | 6.78 | 7.15 | 5.15 | 5.54 | 5.95 |  |  |  | C[C@@H]1CN(c2nc(N3CCOCC3)c3sc(-c4ccc(N)nc4)cc3n2)C[C@H](C)O1 |  | 
4.67 | 6.17 | 6.47 | 5.57 | 5.54 | 5.74 |  |  |  | OCc1cc2nc(N3CCOc4ccccc43)nc(N3CCOCC3)c2s1 |  | 
 | 5.02 | < 5.70 |  |  |  |  |  |  | C[C@@H]1CN(c2nc(N3CCOCC3)c3sc(-c4cncnc4)cc3n2)C[C@H](C)O1 |  | 
< 4.60 | 6.55 | 6.21 | 4.89 | 4.80 | 5.52 |  |  |  | C[C@@H]1CN(c2nc(N3CCOCC3)c3sc(-c4cccnc4)cc3n2)C[C@H](C)O1 |  | 
5.48 | 6.91 | 6.20 | 5.86 | 5.91 | 5.59 |  |  |  | CC(O)c1cc2nc(N3C[C@@H](C)O[C@@H](C)C3)nc(N3CCOCC3)c2s1 (stereo not given in full) |  | 
 | 5.21 | < 5.70 |  |  |  |  |  |  | c1cc2c(N3CCOCC3)nc(N3CCOCC3)nc2[nH]1 |  | 
5.61 | 6.63 | < 5.70 | < 4.60 | < 4.60 | 4.63 |  |  |  | O=C(O)c1cc2nc(N3CCOCC3)nc(N3CCOCC3)c2s1 |  | 
 | < 5.00 | < 5.70 |  |  |  |  |  |  | C[C@@H]1CN(c2nc(N3CCOCC3)c3sc(-c4cccc5[nH]ncc45)cc3n2)C[C@H](C)O1 |  | 
 | 5.73 | < 5.70 |  |  |  |  |  |  | c1cc2nc(N3CCOCC3)nc(N3CCOCC3)c2s1 |  | 
4.76 | 6.67 | < 5.70 | 5.22 | 5.08 | 5.69 |  |  |  | OCc1cc2nc(N3CCOCC3)nc(N3CCOCC3)c2s1 |  | 
< 4.60 | 7.62 | 6.37 | 5.44 | 5.00 | 5.34 | 6.50 | 7.46 | 6.77 | C[C@@H]1CN(c2nc(N3CCOCC3)c3sc(-c4cnc(N)nc4)cc3n2)C[C@H](C)O1 |  | 
 | < 5.00 | < 5.70 |  |  |  |  |  |  | C[C@@H]1CN(c2nc(N3CCOCC3)c3sc(-c4ccncc4)cc3n2)C[C@H](C)O1 |  | 
< 4.60 | 6.00 | 6.37 | < 4.60 | 4.99 | 5.39 |  |  |  | C[C@@H]1CN(c2nc(N3CCOCC3)c3sc(-c4cn[nH]c4)cc3n2)C[C@H](C)O1 |  | 
< 4.60 | 6.60 | 6.22 | 5.65 | 5.66 | 5.38 |  |  |  | OCc1cc2nc(N3CCSCC3)nc(N3CCOCC3)c2s1 |  | 

pIC50 (U-87 MG [1]) | pIC50 [2] | pIC50 [3] | pIC50 (PC-3) | pIC50 (SK-OV-3 [4]) | pIC50 (LNCaP) | pIC50 [5] | pIC50 [6] | pIC50 [7] | Compound | TGI (SK-OV-3 [8]) | TGI (U-87 MG [9])
 | 5.30 | < 5.70 |  |  |  |  |  |  | C[C@@H]1CN(c2nc(N3CCOCC3)c3sc(-c4cnn(C)c4)cc3n2)C[C@H](C)O1 |  | 
 | < 5.00 | < 5.70 |  |  |  |  |  |  | COc1ccc(-c2cc3nc(N4C[C@@H](C)O[C@@H](C)C4)nc(N4CCOCC4)c3s2)cn1 |  | 
 | 5.69 | < 5.70 |  |  |  |  |  |  | C[C@@H]1CN(c2nc(N3CCOCC3)c3sc(C(O)Cc4ccccc4)cc3n2)C[C@H](C)O1 (stereo not given in full) |  | 
 | 5.99 | < 5.70 |  |  |  |  |  |  | CN1CCN(c2nc(N3CCOCC3)c3sc(CO)cc3n2)CC1 |  | 
< 4.60 | 6.55 | < 5.70 | 4.82 | 4.63 | 5.21 |  |  |  | CS(=O)(=O)N1CCN(c2nc(N3CCOCC3)c3sc(CO)cc3n2)CC1 |  | 
5.35 | 6.16 | 6.57 | 5.56 | 6.00 | 5.35 |  |  |  | C[C@@H]1CN(c2nc(N3CCOCC3)c3sc(-c4ccccn4)cc3n2)C[C@H](C)O1 |  | 
4.89 | 5.66 | 6.96 | < 4.60 | 5.23 | 5.58 |  |  |  | C[C@@H]1CN(c2nc(N3CCOCC3)c3sc(-c4ccco4)cc3n2)C[C@H](C)O1 |  | 
< 4.60 | 6.52 | 6.47 | 5.88 | 5.66 | 5.58 |  |  |  | C[C@@H]1COCCN1c1nc(N2CCOCC2)c2sc(CO)cc2n1 |  | 
 | 5.32 | < 5.70 |  |  |  |  |  |  | CS(=O)(=O)N1CCN(Cc2cc3nc(N4CCOCC4)nc(N4CCOCC4)c3s2)CC1 |  | 
 | < 5.00 | < 5.70 |  |  |  |  |  |  | c1nc2c(N3CCOCC3)nc(N3CCOCC3)nc2[nH]1 |  | 
5.18 | 6.67 | 6.33 | 5.98 | 5.30 | 5.75 |  |  |  | C[C@@H]1CN(c2nc(N3CCOCC3)c3sc(CO)cc3n2)C[C@H](C)O1 |  | 
 | 5.91 | < 5.70 |  |  |  |  |  |  | C[C@@H]1CN(c2nc(N3CCOCC3)c3sc(-c4ccnn4C)cc3n2)C[C@H](C)O1 |  | 
< 4.60 | 6.72 | 6.06 | 5.36 | 5.15 | 5.49 |  |  |  | C[C@@H]1CN(c2nc(N3CCOCC3)c3sc(C(N)=O)cc3n2)C[C@H](C)O1 |  | 
< 4.60 | 6.62 | < 5.70 | 5.53 | 5.04 | 5.80 |  |  |  | CCC(O)c1cc2nc(N3C[C@@H](C)O[C@@H](C)C3)nc(N3CCOCC3)c2s1 (stereo not given in full) |  | 
 |  |  |  |  |  |  |  |  | CS(=O)(=O)N1CCN(Cc2cc3nc(-c4cccc5[nH]ncc45)nc(N4CCOCC4)c3s2)CC1 | inactive | inactive
 | < 5.00 | < 5.70 |  |  |  |  |  |  | C[C@@H]1CN(c2nc(N3CCOCC3)c3sc(-c4ccccc4)cc3n2)C[C@H](C)O1 |  | 
 | 6.17 | < 5.70 |  |  |  |  |  |  | CC(=O)c1cc2nc(N3CCOCC3)nc(N3CCOCC3)c2s1 |  | 
< 4.60 | 5.45 | 6.65 | 5.23 | 4.66 | 5.17 |  |  |  | C[C@@H]1CN(c2nc(N3CCOCC3)c3sc(-c4ccoc4)cc3n2)C[C@H](C)O1 |  | 
